From patent US9371294B2, “Cycloalkenyl aryl derivatives for CETP inhibitor” (CHONG KUN DANG PHARMACEUTICAL CORP., priority 2011, dated 2016)

These compounds were tested against T1, cholesteryl ester transfer protein (Homo sapiens, UniProt P11597) (assay: In vitro test for the ability to inhibit cholesteryl ester transfer). Settings: [3H]-cholesteryl oleate transfer from rHDL-agarose to LDL; human plasma as CETP source; 37° C.; 16-10000 nM, duplicate.
T1 construct: As a source of cholesteryl ester transfer protein, plasma from healthy humans was used; from tissue; host or cells: plasma from healthy humans
T1 sequence (P11597 18-493): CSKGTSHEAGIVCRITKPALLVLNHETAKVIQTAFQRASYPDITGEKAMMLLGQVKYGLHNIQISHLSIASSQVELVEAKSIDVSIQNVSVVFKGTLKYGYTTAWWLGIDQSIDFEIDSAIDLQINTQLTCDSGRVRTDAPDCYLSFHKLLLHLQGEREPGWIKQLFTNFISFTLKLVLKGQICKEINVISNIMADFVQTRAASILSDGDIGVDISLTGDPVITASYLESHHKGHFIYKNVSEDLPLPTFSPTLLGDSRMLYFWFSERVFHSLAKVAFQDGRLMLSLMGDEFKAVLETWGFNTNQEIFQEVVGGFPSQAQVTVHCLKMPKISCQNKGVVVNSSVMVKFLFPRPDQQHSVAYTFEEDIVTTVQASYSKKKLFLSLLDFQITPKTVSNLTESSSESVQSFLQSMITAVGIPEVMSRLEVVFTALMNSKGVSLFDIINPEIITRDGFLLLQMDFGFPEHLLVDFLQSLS
Type: biochemical
In short: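 Human plasma served as the CETP source, with human LDL (0.25 mg/ml) as acceptor and agarose-immobilised recombinant HDL carrying [3H]-cholesteryl oleate (0.25 mg/ml) as donor, at 37 °C. Compounds were run in duplicate at 16–10000 nM. Transferred radioactivity in the supernatant was counted by beta detection, and IC50 was fitted from the fraction of label transferred to LDL.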

Point of comparison: `COC(=O)CCc1ccc(OC)c(C2=C(CN3C(=O)O[C@H](c4cc(C(F)(F)F)cc(C(F)(F)F)c4)[C@@H]3C)CC(C)(C)CC2)c1` [Compound 272, methyl 3-(3-(2-(((4S,5R)-5-(3,5-bis(trifluoromethyl)phenyl)-4-methyl-2-oxooxazolidin-3-yl)methyl)-4,4-dimethylcyclohex-1-enyl)-4-methoxyphenyl)propanoate], IC50 0.222 µM. Against it:
- COc1cc(F)c(C(C)C)cc1C1=C(CN2C(=O)O[C@H](c3cc(C(F)(F)F)cc(C(F)(F)F)c3)[C@@H]2C)CN(CC(F)(F)F)CC1 [Compound 268, (4S,5R)-5-(3,5-bis(trifluoromethyl)phenyl)-3-((4-(4-fluoro-5-isopropyl-2-methoxyphenyl)-1-(2,2,2-trifluoroethyl)-1,2,5,6-tetrahydropyridin-3-yl)methyl)-4-methyloxazolidin-2-one] — 4.8-fold lower, 0.046 µM
- COc1ccc(CCC(=O)O)cc1C1=C(CN2C(=O)O[C@H](c3cc(C(F)(F)F)cc(C(F)(F)F)c3)[C@@H]2C)CC(C)(C)CC1 [Compound 273, 3-(3-(2-(((4S,5R)-5-(3,5-bis(trifluoromethyl)phenyl)-4-methyl-2-oxooxazolidin-3-yl)methyl)-4,4-dimethylcyclohex-1-enyl)-4-methoxyphenyl)propanoic acid] — within 1.5-fold, 0.217 µM
- COC(=O)C(C)(C)Cc1ccc(OC)c(C2=C(CN3C(=O)O[C@H](c4cc(C(F)(F)F)cc(C(F)(F)F)c4)[C@@H]3C)CC(C)(C)CC2)c1 [Compound 285, methyl 3-(3-(2-(((4S,5R)-5-(3,5-bis(trifluoromethyl)phenyl)-4-methyl-2-oxooxazolidin-3-yl)methyl)-4,4-dimethylcyclohex-1-enyl)-4-methoxyphenyl)-2,2-dimethylpropanoate] — 6.7-fold lower, 0.033 µM
- COc1ccc(CCC#N)cc1C1=C(CN2C(=O)O[C@H](c3cc(C(F)(F)F)cc(C(F)(F)F)c3)[C@@H]2C)CC(C)(C)CC1 [Compound 300, 3-(3-(2-(((4S,5R)-5-(3,5-bis(trifluoromethyl)phenyl)-4-methyl-2-oxooxazolidin-3-yl)methyl)-4,4-dimethylcyclohex-1-enyl)-4-methoxyphenyl)propanenitrile] — 220-fold lower, 0.001 µM
- COc1cc(F)c(C2(C)CC2)cc1C1=C(CN2C(=O)O[C@H](c3cc(C(F)(F)F)cc(C(F)(F)F)c3)[C@@H]2C)CC2(CC1)CC2 [Compound 303, (4S,5R)-5-(3,5-bis(trifluoromethyl)phenyl)-3-((6-(4-fluoro-2-methoxy-5-(1-methylcyclopropyl)phenyl)spiro[2.5]oct-5-en-5-yl)methyl)-4-methyloxazolidin-2-one] — 44-fold lower, 0.005 µM
- COC(=O)CC(C)(C)c1ccc(OC)c(C2=C(CN3C(=O)O[C@H](c4cc(C(F)(F)F)cc(C(F)(F)F)c4)[C@@H]3C)CC(C)(C)CC2)c1 [Compound 308, methyl 3-(3-(2-(((4S,5R)-5-(3,5-bis(trifluoromethyl)phenyl)-4-methyl-2-oxooxazolidin-3-yl)methyl)-4,4-dimethylcyclohex-1-enyl)-4-methoxyphenyl)-3-methylbutanoate] — 32-fold lower, 0.007 µM
- COc1ccc(CC2(C(=O)O)CCC2)cc1C1=C(CN2C(=O)O[C@H](c3cc(C(F)(F)F)cc(C(F)(F)F)c3)[C@@H]2C)CC(C)(C)CC1 [Compound 313, 1-(3-(2-(((4S,5R)-5-(3,5-bis(trifluoromethyl)phenyl)-4-methyl-2-oxooxazolidin-3-yl)methyl)-4,4-dimethylcyclohex-1-enyl)-4-methoxybenzyl)cyclobutanecarboxylic acid] — 11-fold lower, 0.02 µM
- COc1ncc(C(F)(F)F)cc1C1=C(CN2C(=O)O[C@H](c3cc(C(F)(F)F)cc(C(F)(F)F)c3)[C@@H]2C)CC(C)(C)CC1 [Compound 316, (4S,5R)-5-(3,5-bis(trifluoromethyl)phenyl)-3-((2-(2-methoxy-5-(trifluoromethyl)pyridin-3-yl)-5,5-dimethylcyclohex-1-enyl)methyl)-4-methyloxazolidin-2-one] — 7.4-fold lower, 0.03 µM
- COC(=O)Cc1cc2c(c(C3=C(CN4C(=O)O[C@H](c5cc(C(F)(F)F)cc(C(F)(F)F)c5)[C@@H]4C)CC(C)(C)CC3)c1)OCO2 [Compound 317, methyl 2-(7-(2-(((4S,5R)-5-(3,5-bis(trifluoromethyl)phenyl)-4-methyl-2-oxooxazolidin-3-yl)methyl)-4,4-dimethylcyclohex-1-enyl)benzo[d][1,3]dioxol-5-yl)acetate] — 4.1-fold lower, 0.054 µM
- CNC(=O)C(C)(C)Cc1ccc(OC)c(C2=C(CN3C(=O)O[C@H](c4cc(C(F)(F)F)cc(C(F)(F)F)c4)[C@@H]3C)CC(C)(C)CC2)c1 [Compound 321, 3-(3-(2-(((4S,5R)-5-(3,5-bis(trifluoromethyl)phenyl)-4-methyl-2-oxooxazolidin-3-yl)methyl)-4,4-dimethylcyclohex-1-enyl)-4-methoxyphenyl)-N,2,2-trimethylpropanamide] — 2.1-fold lower, 0.104 µM
- COC(=O)C1(Cc2ccc(OC)c(C3=C(CN4C(=O)O[C@H](c5cc(C(F)(F)F)cc(C(F)(F)F)c5)[C@@H]4C)CC(C)(C)CC3)c2)CCCC1 [Compound 323, methyl 1-(3-(2-(((4S,5R)-5-(3,5-bis(trifluoromethyl)phenyl)-4-methyl-2-oxooxazolidin-3-yl)methyl)-4,4-dimethylcyclohex-1-enyl)-4-methoxybenzyl)cyclopentanecarboxylate] — 3.8-fold lower, 0.058 µM
- COc1ccc(CC2(C(=O)O)CCCC2)cc1C1=C(CN2C(=O)O[C@H](c3cc(C(F)(F)F)cc(C(F)(F)F)c3)[C@@H]2C)CC(C)(C)CC1 [Compound 324, 1-(3-(2-(((4S,5R)-5-(3,5-bis(trifluoromethyl)phenyl)-4-methyl-2-oxooxazolidin-3-yl)methyl)-4,4-dimethylcyclohex-1-enyl)-4-methoxybenzyl)cyclopentanecarboxylic acid] — 2.3-fold lower, 0.097 µM
- COc1cc(F)c(CC(C)(C)C(N)=O)cc1C1=C(CN2C(=O)O[C@H](c3cc(C(F)(F)F)cc(C(F)(F)F)c3)[C@@H]2C)CC(C)(C)CC1 [Compound 329, 3-(5-(2-(((4S,5R)-5-(3,5-bis(trifluoromethyl)phenyl)-4-methyl-2-oxooxazolidin-3-yl)methyl)-4,4-dimethylcyclohex-1-enyl)-2-fluoro-4-methoxyphenyl)-2,2-dimethylpropanamide] — 25-fold lower, 0.009 µM
- COc1ccc(-c2nnn(C)n2)cc1C1=C(CN2C(=O)O[C@H](c3cc(C(F)(F)F)cc(C(F)(F)F)c3)[C@@H]2C)CC(C)(C)CC1 [Compound 338, (4S,5R)-5-(3,5-bis(trifluoromethyl)phenyl)-3-((2-(2-methoxy-5-(2-methyl-2H-tetrazol-5-yl)phenyl)-5,5-dimethylcyclohex-1-enyl)methyl)-4-methyloxazolidin-2-one] — 6.3-fold lower, 0.035 µM
- COc1ccc(CC(C)(C)c2nn[nH]n2)cc1C1=C(CN2C(=O)O[C@H](c3cc(C(F)(F)F)cc(C(F)(F)F)c3)[C@@H]2C)CC(C)(C)CC1 [Compound 340, (4S,5R)-5-(3,5-bis(trifluoromethyl)phenyl)-3-((2-(2-methoxy-5-(2-methyl-2-(2H-tetrazol-5-yl)propyl)phenyl)-5,5-dimethylcyclohex-1-enyl)methyl)-4-methyloxazolidin-2-one] — 28-fold lower, 0.008 µM
- COc1ccc(CC(C)(C)c2nnn(C)n2)cc1C1=C(CN2C(=O)O[C@H](c3cc(C(F)(F)F)cc(C(F)(F)F)c3)[C@@H]2C)CC(C)(C)CC1 [Compound 341, (4S,5R)-5-(3,5-bis(trifluoromethyl)phenyl)-3-((2-(2-methoxy-5-(2-methyl-2-(2-methyl-2H-tetrazol-5-yl)propyl)phenyl)-5,5-dimethylcyclohex-1-enyl)methyl)-4-methyloxazolidin-2-one] — 17-fold lower, 0.013 µM
- COc1ncc(CC(C)(C)C(=O)O)cc1C1=C(CN2C(=O)O[C@H](c3cc(C(F)(F)F)cc(C(F)(F)F)c3)[C@@H]2C)CC(C)(C)CC1 [Compound 350, 3-(5-(2-(((4S,5R)-5-(3,5-bis(trifluoromethyl)phenyl)-4-methyl-2-oxooxazolidin-3-yl)methyl)-4,4-dimethylcyclohex-1-enyl)-6-methoxypyridin-3-yl)-2,2-dimethylpropanoic acid] — 4.4-fold lower, 0.051 µM
- COc1ccc(Cl)cc1C1=C(CN2C(=O)O[C@H](c3cc(C(F)(F)F)cc(C(F)(F)F)c3)[C@@H]2C)CC(C)(C)CC1 [Compound 353, (4S,5R)-5-(3,5-bis(trifluoromethyl)phenyl)-3-((2-(5-chloro-2-methoxyphenyl)-5,5-dimethylcyclohex-1-enyl)methyl)-4-methyloxazolidin-2-one] — 7.4-fold lower, 0.03 µM
- COc1ccc(C(C)C)nc1C1=C(CN2C(=O)O[C@H](c3cc(C(F)(F)F)cc(C(F)(F)F)c3)[C@@H]2C)CC(C)(C)CC1 [Compound 366, (4S,5R)-5-(3,5-bis(trifluoromethyl)phenyl)-3-((2-(6-isopropyl-3-methoxypyridin-2-yl)-5,5-dimethylcyclohex-1-enyl)methyl)-4-methyloxazolidin-2-one] — 37-fold lower, 0.006 µM
- COc1ccc(CN2CC[C@H](F)C2)cc1C1=C(CN2C(=O)O[C@H](c3cc(C(F)(F)F)cc(C(F)(F)F)c3)[C@@H]2C)CC(C)(C)CC1 [Compound 367, (4S,5R)-5-(3,5-bis(trifluoromethyl)phenyl)-3-((2-(5-(((S)-3-fluoropyrrolidin-1-yl)methyl)-2-methoxyphenyl)-5,5-dimethylcyclohex-1-enyl)methyl)-4-methyloxazolidin-2-one] — 2.7-fold lower, 0.083 µM
